Data: patent US11013235B2 (priority 2015, dated 2021)
Where two headings read alike, the source gives them in different places.

Legend:
Assay type in all cases: in vivo
[1] = system: Candidatus 'Liberibacter asiaticus'; details: spraying every 15 days, 12 months after treatment, Citrus sinensis with HLB
[2] = system: Candidatus 'Liberibacter asiaticus'; details: 1 μM spray, during 6 months, diseased citrus plants
Phytophthora parasitica = test: Control of Phytophthora parasitica disease in tobacco (Pp-Nt); details: 1 μM spraying every 24 hours for one week, water control 91
Rhizoctonia solani [3] = test: Control of Rhizoctonia solani disease in tobacco (Rs-Nt); details: 1 μM spraying every 24 hours for one week, water control 87
Nocardia sp = test: Control of Nocardia sp disease in tobacco (N-Nt); details: 1 μM spraying every 24 hours for one week, water control 58
Outline: (§1)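 Post-inoculation foliar spray, 1 μM, q24h × 1 wk; n = 50 plants/treatment; water control. Endpoints: mortality rate (Nocardia), % symptomatic leaves (Alternaria), lesion diameter (Botrytis).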

Rhizoctonia solani [4] = test: Control of Rhizoctonia solani disease in tomato (Rs-SI); details: 1 μM spraying every 24 hours for one week, water control 96
Alternaria solani = test: Control of Alternaria solani disease in tomato (As-SI); details: 1 μM spraying every 24 hours for one week, water control 68
Outline: as §1

Botrytis cinerea [5] = test: Control of Botrytis cinerea disease in Arabidopsis (Bc-At); details: 1 μM spraying every 24 hours for one week, water control 8.7
Outline: as §1

Botrytis cinerea [6] = test: Control of Botrytis cinerea disease in tobacco (Bc-Nt); details: 1 μM spraying every 24 hours for one week, water control 6.7
Outline: as §1

Botrytis cinerea [7] = test: Control of Botrytis cinerea disease in tomato (Bc-SI); details: 1 μM spraying every 24 hours for one week, water control 7.4
Outline: as §1

Radopholus similis = test: Nematode control, nodules per plant: Radopholus similis; details: 1 μM foliar application every 5 days, evaluation 35 days after, control 45
Outline: (§2)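 Ten plants per group were treated by spraying leaves only, every 5 days, with compound at 1 μM in water diluted from ethanol, and final nodule counts per plant were taken after 35 days.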

Meloidogyne incognita = test: Nematode control, nodules per plant: Meloidogyne incognita; details: 1 μM foliar application every 5 days, evaluation 35 days after, control 34
Outline: as §2

Pratylenchus coffeae = test: Nematode control, nodules per plant: Pratylenchus coffeae; details: 1 μM foliar application every 5 days, evaluation 35 days after, control 42
Outline: as §2

O=C(CCc1cc2cc3c(-c4ccccc4)coc3cc2oc1=O)NCC(O)CO (centres unmarked) [IB, N-(2,3-dihydroxypropyl)-3-{2-oxo-6-phenyl-2H-furo[3,2-g]chromen-3-yl}propanamide]
Titers of the bacterium ([1]; 0.001 μM): 598 copies per reaction | Titers of the bacterium ([1]; 0.01 μM): 15 copies per reaction | Titers of the bacterium ([1]; 1 μM): 0 copies per reaction | Titers of the bacterium ([1]; 5 μM): 98 copies per reaction | Titers of the bacterium ([1]; 10 μM): 9751 copies per reaction | Levels of the bacterium, application once a month compared to twice a month [2]: reduced significantly | Bacterial reduction ([2]; once and twice a month): bacterial reduction was observed in both tested variants | Pp-Nt: percentage of mortality (Phytophthora parasitica): 2% | Rs-Nt: percentage of mortality (Rhizoctonia solani [3]): 3% | N-Nt: percentage of mortality (Nocardia sp): 1% | Rs-SI: percentage of mortality (Rhizoctonia solani [4]): 2% | As-SI: percentage of leaves with the disease symptoms (Alternaria solani): 2% | Bc-At: mean of the diameter of the lesion (Botrytis cinerea [5]): 1.1 mm | Bc-Nt: mean of the diameter of the lesion (Botrytis cinerea [6]): 2.0 mm | Bc-SI: mean of the diameter of the lesion (Botrytis cinerea [7]): 1.6 mm | Rs: number of nodules per plant (Radopholus similis): 24 | Mi: number of nodules per plant (Meloidogyne incognita): 3 | Pc: number of nodules per plant (Pratylenchus coffeae): 13

O=C(c1ccc(OC2CCN(CC(O)CO)CC2)cc1)N1CCC(C2CCCCC2)C1 (centres unmarked) [IVE]
Titers of the bacterium ([1]; 0.001 μM): 985 copies per reaction | Titers of the bacterium ([1]; 0.01 μM): 0 copies per reaction | Titers of the bacterium ([1]; 1 μM): 0 copies per reaction | Titers of the bacterium ([1]; 5 μM): 98 copies per reaction | Titers of the bacterium ([1]; 10 μM): 9845 copies per reaction | Pp-Nt: percentage of mortality (Phytophthora parasitica): 1% | Rs-Nt: percentage of mortality (Rhizoctonia solani [3]): 4% | N-Nt: percentage of mortality (Nocardia sp): 2% | Rs-SI: percentage of mortality (Rhizoctonia solani [4]): 2% | As-SI: percentage of leaves with the disease symptoms (Alternaria solani): 3% | Bc-At: mean of the diameter of the lesion (Botrytis cinerea [5]): 0.5 mm | Bc-Nt: mean of the diameter of the lesion (Botrytis cinerea [6]): 0.9 mm | Bc-SI: mean of the diameter of the lesion (Botrytis cinerea [7]): 0.8 mm | Rs: number of nodules per plant (Radopholus similis): 14 | Mi: number of nodules per plant (Meloidogyne incognita): 4 | Pc: number of nodules per plant (Pratylenchus coffeae): 2

O=C(Cc1cc2c(oc1=O)C=CC1C(c3ccccc3)=COC21)NCC(O)CO (centres unmarked) [IIB, N-(2,3-dihydroxypropyl)-2-{11-oxo-5-phenyl-3,10-dioxatricyclo[7.4.0.0^{2,6}]trideca-1(9),4,7,12-tetraen-12-yl}acetamide]
Titers of the bacterium ([1]; 0.001 μM): 432 copies per reaction | Titers of the bacterium ([1]; 0.01 μM): 17 copies per reaction | Titers of the bacterium ([1]; 1 μM): 2 copies per reaction | Titers of the bacterium ([1]; 5 μM): 43 copies per reaction | Titers of the bacterium ([1]; 10 μM): 8654 copies per reaction | Pp-Nt: percentage of mortality (Phytophthora parasitica): 2% | Rs-Nt: percentage of mortality (Rhizoctonia solani [3]): 3% | N-Nt: percentage of mortality (Nocardia sp): 1% | Rs-SI: percentage of mortality (Rhizoctonia solani [4]): 2% | As-SI: percentage of leaves with the disease symptoms (Alternaria solani): 2% | Bc-At: mean of the diameter of the lesion (Botrytis cinerea [5]): 1.5 mm | Bc-Nt: mean of the diameter of the lesion (Botrytis cinerea [6]): 1.5 mm | Bc-SI: mean of the diameter of the lesion (Botrytis cinerea [7]): 2.5 mm | Rs: number of nodules per plant (Radopholus similis): 2 | Mi: number of nodules per plant (Meloidogyne incognita): 3 | Pc: number of nodules per plant (Pratylenchus coffeae): 14

O=C(c1cnc(N2CCN(c3ccccc3)CC2)nc1)N1CC2CC(O)C(O)CC2C1 (centres unmarked) [IIIC, 2-{[2-(4-phenylpiperazin-1-yl)pyrimidin-5-yl]carbonyl}-octahydro-1H-isoindole-5,6-diol]
Titers of the bacterium ([1]; 0.001 μM): 587 copies per reaction | Titers of the bacterium ([1]; 0.01 μM): 0 copies per reaction | Titers of the bacterium ([1]; 1 μM): 0 copies per reaction | Titers of the bacterium ([1]; 5 μM): 87 copies per reaction | Titers of the bacterium ([1]; 10 μM): 3654 copies per reaction | Pp-Nt: percentage of mortality (Phytophthora parasitica): 1% | Rs-Nt: percentage of mortality (Rhizoctonia solani [3]): 4% | N-Nt: percentage of mortality (Nocardia sp): 2% | Rs-SI: percentage of mortality (Rhizoctonia solani [4]): 2% | As-SI: percentage of leaves with the disease symptoms (Alternaria solani): 3% | Bc-At: mean of the diameter of the lesion (Botrytis cinerea [5]): 1.2 mm | Bc-Nt: mean of the diameter of the lesion (Botrytis cinerea [6]): 0.3 mm | Bc-SI: mean of the diameter of the lesion (Botrytis cinerea [7]): 0.8 mm | Rs: number of nodules per plant (Radopholus similis): 14 | Mi: number of nodules per plant (Meloidogyne incognita): 4 | Pc: number of nodules per plant (Pratylenchus coffeae): 2

O=C(Cc1cc2c(oc1=O)C=CC1C=COC21)NCC(O)CO (centres unmarked) [IIF, N-(2,3-dihydroxypropyl)-2-{11-oxo-3,10-dioxatricyclo[7.4.0.0^{2,6}]trideca-1(9),4,7,12-tetraen-12-yl}acetamide]
Titers of the bacterium ([1]; 0.001 μM): 657 copies per reaction | Titers of the bacterium ([1]; 0.01 μM): 9 copies per reaction | Titers of the bacterium ([1]; 1 μM): 0 copies per reaction | Titers of the bacterium ([1]; 5 μM): 67 copies per reaction | Titers of the bacterium ([1]; 10 μM): 6547 copies per reaction | Pp-Nt: percentage of mortality (Phytophthora parasitica): 0% | Rs-Nt: percentage of mortality (Rhizoctonia solani [3]): 0% | N-Nt: percentage of mortality (Nocardia sp): 0% | Rs-SI: percentage of mortality (Rhizoctonia solani [4]): 1% | As-SI: percentage of leaves with the disease symptoms (Alternaria solani): 5% | Bc-At: mean of the diameter of the lesion (Botrytis cinerea [5]): 1.1 mm | Bc-Nt: mean of the diameter of the lesion (Botrytis cinerea [6]): 2.0 mm | Bc-SI: mean of the diameter of the lesion (Botrytis cinerea [7]): 1.6 mm | Rs: number of nodules per plant (Radopholus similis): 0 | Mi: number of nodules per plant (Meloidogyne incognita): 0 | Pc: number of nodules per plant (Pratylenchus coffeae): 0

O=C(Cc1cc2c(oc1=O)C=CC1C(C3CCCC3)=COC21)NCC(O)CO (centres unmarked) [IID, 2-{5-cyclopentyl-11-oxo-3,10-dioxatricyclo[7.4.0.0^{2,6}]trideca-1(9),4,7,12-tetraen-12-yl}-N-(2,3-dihydroxypropyl)acetamide]
Titers of the bacterium ([1]; 0.001 μM): 587 copies per reaction | Titers of the bacterium ([1]; 0.01 μM): 12 copies per reaction | Titers of the bacterium ([1]; 1 μM): 2 copies per reaction | Titers of the bacterium ([1]; 5 μM): 87 copies per reaction | Titers of the bacterium ([1]; 10 μM): 1351 copies per reaction | Pp-Nt: percentage of mortality (Phytophthora parasitica): 0% | Rs-Nt: percentage of mortality (Rhizoctonia solani [3]): 0% | N-Nt: percentage of mortality (Nocardia sp): 1% | Rs-SI: percentage of mortality (Rhizoctonia solani [4]): 2% | As-SI: percentage of leaves with the disease symptoms (Alternaria solani): 8% | Bc-At: mean of the diameter of the lesion (Botrytis cinerea [5]): 0.7 mm | Bc-Nt: mean of the diameter of the lesion (Botrytis cinerea [6]): 0.9 mm | Bc-SI: mean of the diameter of the lesion (Botrytis cinerea [7]): 1.2 mm | Rs: number of nodules per plant (Radopholus similis): 0 | Mi: number of nodules per plant (Meloidogyne incognita): 0 | Pc: number of nodules per plant (Pratylenchus coffeae): 17
